“And” between values parts separate entries of the source, which are not always exact repeats. Identical values can stand only once.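 Cells were grown in 96-well plates and exposed to each compound for 48 hours at five concentrations; endpoints were interpolated linearly between bracketing concentrations, or set to the highest concentration if not reached. The concentration for 50% growth inhibition is given as GI50. At the TGI there is no net growth.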
Tests used:
Test in all cases: NCI-60 cell line screen, 48 h
RPMI-8226 leukemia = tested on: RPMI-8226 leukemia
OVCAR-5 ovarian = tested on: OVCAR-5 ovarian
SF-295 CNS = tested on: SF-295 CNS
A498 renal = tested on: A498 renal
CCRF-CEM leukemia = tested on: CCRF-CEM leukemia
NCI-H522 lung = tested on: NCI-H522 lung
MOLT-4 leukemia = tested on: MOLT-4 leukemia
NCI-H23 lung = tested on: NCI-H23 lung
SK-MEL-28 melanoma = tested on: SK-MEL-28 melanoma
SR leukemia = tested on: SR leukemia

SMILES	TGI (RPMI-8226 leukemia) [µM]	TGI (OVCAR-5 ovarian)	TGI (SF-295 CNS) [µM]	TGI (A498 renal)	TGI (CCRF-CEM leukemia)	TGI (NCI-H522 lung) [µM]	TGI (MOLT-4 leukemia) [µM]	TGI (NCI-H23 lung) [µM]	TGI (SK-MEL-28 melanoma) [µM]	TGI (SR leukemia) [µM]	GI50 (RPMI-8226 leukemia) [µM]	GI50 (OVCAR-5 ovarian) [µM]	GI50 (SF-295 CNS) [µM]	GI50 (SR leukemia) [µM]	GI50 (A498 renal) [µM]	GI50 (CCRF-CEM leukemia) [µM]	GI50 (MOLT-4 leukemia) [µM]	GI50 (NCI-H23 lung) [µM]	GI50 (SK-MEL-28 melanoma) [µM]	GI50 (NCI-H522 lung) [µM]
COc1cc2c(cc1OC)[C@H](C)N1CCc3cc(OC)c(OC)cc3[C@@H]1C2	> 100	> 100 µM	> 100	> 100 µM	> 100 µM	> 100	> 100	> 100	> 100											
CCCCCCCCCCCCCCCC(=O)OCC1OC(n2cc(F)c(=O)[nH]c2=O)C(N)C(O)C1O (stereo not drawn)	51.3	58.8 µM	31.1	61.3 µM	31.7 µM	31.7	40.7	39.3	31.1											
OC1(C23CC4CC(CC(C4)C2)C3)CSCC1(O)C12CC3CC(CC(C3)C1)C2 (stereo not drawn)	> 100		> 100		> 10 µM	> 100	> 10	> 100	> 100	> 100										
CCOC(C[C@H](O[Si](C)(C)C(C)(C)C)[C@H]1COC(=S)S1)OCC	> 100		> 100		> 100 µM	55.6	> 100	> 100	> 100	> 100										
Cc1cc([N+](=O)[O-])c(NS(=O)(=O)c2cccc(C(=O)O)c2)cc1-c1cccnc1	> 100	> 100 µM	> 100	> 100 µM	> 100 µM		> 100	> 100	> 100	> 100	> 100	> 100	> 100	> 100	> 100	> 100	> 100	> 100	> 100	
CCCCOC(=O)N1CCN(/[N+]([O-])=N/Oc2ccc([N+](=O)[O-])cc2[N+](=O)[O-])CC1	5.47	11.8 µM	> 100			> 100	> 100	19.5	35.7	> 100	2.3	3.53	28.6	> 100			> 100	4.6	13.7	2.91
CC(C)CCCC(C)[C@H]1CCC2[C@@H]3CCC4Cc5nc6c(nc5C[C@]4(C)C3CC[C@@]21C)CC1CC[C@@H]2C(CC[C@@]3(C)C2CC[C@@H]3C(C)CCCC(C)C)[C@@]1(C)C6 (stereo partly drawn)	> 100	> 100 µM	> 100	> 100 µM	> 100 µM		> 100	> 100	> 100	> 100										
O=C1C(Nc2ccc(Cl)cc2)=C(I)C(=O)c2ncccc21	5	3 µM	19.6	13.4 µM	5.88 µM		9.32	3.17	3.02	2.28	1.33	1.58	6.79	0.301	2.53	0.784	0.964	1.25	1.64	
O=C1NNC2(C(=O)N1)c1ccccc1-c1ccccc12	> 10		> 10		> 10 µM	> 10	> 10	> 10	> 10	> 10										
CC(=O)[CH-]C(=O)c1ccccc1.CC(=O)[CH-]C(=O)c1ccccc1.CC[O-].CC[O-].[Hf+4]	> 100	> 100 µM	> 100	> 100 µM	> 100 µM	> 100	> 100	> 100	> 100		> 100	> 100	> 100		> 100	69.1	> 100	> 100	> 100	> 100
O=C1c2cc3c(cc2[C@@H]2[C@H]1c1ccc([N+](=O)[O-])cc1C(=O)N2CCCBr)OCO3				< 0.01 µM			0.0541	0.0775	> 100	< 0.01		< 0.0158	< 0.01	< 0.01	< 0.01		< 0.01	< 0.01	< 0.01	< 0.0266
CCCCCCC[CH2][Sn]([CH2]CCCCCCC)([O]c1cccc2cccnc12)[O]c1cccc2cccnc12	2.84	8.21 µM	6.08	5.85 µM	3.25 µM	3.86	3.81				0.625	3.02	2.38		2.62	0.506	0.595			0.605
OC(CCNC12CC3CC(CC(C3)C1)C2)c1ccccc1 (stereo not drawn)		> 100 µM	> 100	> 100 µM	> 100 µM	> 100	> 100	> 100	> 100											
O=C1Nc2ccc(Br)cc2C1=Nc1cccnc1	60.9	> 100 µM	> 100	> 100 µM	57.4 µM	29.5	64.5	45.4	42											
CC1(C)C2CCC13C(=O)C1OC3(C2)C2C(=O)c3ccccc3C(=O)C12 (stereo not drawn)		> 100 µM			> 100 µM	> 100	> 100	> 100	> 100	> 100		> 100		> 100		97	> 100	> 100	> 100	> 100
CC1CCC/C1=C(/I)C(=O)c1ccccc1 (stereo not drawn)	> 100	> 100 µM	> 100		75.5 µM	> 100	45.2	> 100	> 100	78.1										
CN(C(=O)C12C3C4C1C1C2C3C41C(N)=O)C(C)(C)C (stereo not drawn)		> 100 µM	> 100	> 100 µM	> 100 µM	> 100	> 100	> 100	> 100	> 100										
COc1c(O)c2c3c(cc(C)cc3c1C(C)C)OC2	> 100	> 100 µM	> 100		> 100 µM	> 100	> 100	> 100	> 100	> 100										
Cc1ccc2c(c1)-c1c3c(nn1-c1ccccc1)-c1ccccc1SC3O2 (stereo not drawn)	> 100	> 100 µM	> 100	> 100 µM	> 100 µM	> 100	> 100	> 100	> 100											
Nc1ncnc2c1N=C(c1ccc3c(c1)OCO3)CC(c1ccc([N+](=O)[O-])cc1)N2 (stereo not drawn)	49	> 100 µM	> 100	90 µM		> 100	> 100	> 100	> 100	67.9	0.194	> 100	64.2	2.37	25.1		23.7	> 100	> 100	6.78

SMILES	TGI (RPMI-8226 leukemia) [µM]	TGI (OVCAR-5 ovarian)	TGI (SF-295 CNS) [µM]	TGI (A498 renal)	TGI (CCRF-CEM leukemia)	TGI (NCI-H522 lung) [µM]	TGI (MOLT-4 leukemia) [µM]	TGI (NCI-H23 lung) [µM]	TGI (SK-MEL-28 melanoma) [µM]	TGI (SR leukemia) [µM]	GI50 (RPMI-8226 leukemia) [µM]	GI50 (OVCAR-5 ovarian) [µM]	GI50 (SF-295 CNS) [µM]	GI50 (SR leukemia) [µM]	GI50 (A498 renal) [µM]	GI50 (CCRF-CEM leukemia) [µM]	GI50 (MOLT-4 leukemia) [µM]	GI50 (NCI-H23 lung) [µM]	GI50 (SK-MEL-28 melanoma) [µM]	GI50 (NCI-H522 lung) [µM]
NNC(=O)C1CCC(=O)N1S(=O)(=O)c1ccccc1 (stereo not drawn)	> 100	> 100 µM	> 100		> 100 µM	> 100	> 100	> 100	> 100	> 100										
c1cncc(C2N3CCCCC3[C@@H]3c4[nH]c5ccccc5c4CCN23)c1 (stereo partly drawn)	> 100	> 100 µM	> 100	> 100 µM	> 100 µM		> 100	> 100	> 100											
O=C(Nc1ccc(Br)cc1F)c1cc(I)ccc1O		> 100 µM	4.85	3.46 µM	> 100 µM	7.16	7.48	6.01	11.3	> 100		3.17	2.11	2.71	1.32	3.58	2.66	1.9	2.62	2.11
COc1cc2ccnc3c2c(c1OC)-c1coc(SC)c1-3	> 100	> 100 µM	> 100	> 100 µM		> 100	> 100			> 100										
NC(=O)CN(CC(N)=O)C(N)=O	> 100	> 100 µM	> 100	> 100 µM	> 100 µM	> 100	> 100	> 100	> 100											
Cc1c(C(=O)Nc2ccccc2)sc2ncn(Cc3cccc(Cl)c3)c(=O)c12	> 100	94.5 µM	> 100		97.3 µM	> 100	> 100	> 100	> 100	53	10.4	27	32.4	14.8		22.1	51.8	6.5	> 100	19
CCOC(=O)/C(C1=NCCN1)=C(\O)c1ccccc1	> 100	> 100 µM	> 100		> 100 µM	> 100	> 100	> 100	> 100	> 100										
COc1ccc(/C=C/c2cc(OC)c(OC)c(OC)c2)cc1	12.3	> 100 µM	61.3	> 100 µM	> 100 µM	40.9	> 100	> 81.5	96.8				21.9							14.1
CSc1nnc(CCC(=O)Nc2c(C)cccc2C)o1	> 100	> 100 µM	> 100	> 100 µM	> 100 µM	> 100	> 100	> 100	> 100											
NCCCC[C@@H]1NC(=O)[C@H]2CCCN2C(=O)[C@H](Cc2ccccc2)CNC(=O)[C@H](Cc2ccccc2)NC1=O	> 37.5	> 37.5 µM	> 37.5	> 37.5 µM		> 37.5	> 37.5	> 37.5	> 37.5	> 37.5	> 37.5	> 37.5	> 37.5	31.9	> 37.5		> 37.5	> 37.5	> 37.5	> 37.5
CC(=O)Nc1ccc(S(=O)(=O)N/N=C/CN2C(=O)c3ccccc3C2=O)cc1	> 100		> 100	> 100 µM	> 100 µM	> 100	> 100	> 100		> 100										
COc1ccc2c(CN3CCCC[C@H]3C(=O)O)cc3cc4c(cc3c2c1)OCO4	7.24	44.5 µM	3.53	3.06 µM	13.5 µM		2.3	> 100	2.33		2.57	6.17	0.622		1.55	2.94	0.278	3.25	0.7	
C=C/C=C/NC(=O)OCc1ccccc1	> 100	> 100 µM	> 100		> 100 µM	> 100	> 100		> 100	> 100										
C[C@@H]1[C@H](C)N1CC(O)Cn1ccnc1[N+](=O)[O-] (stereo partly drawn)		> 100 µM	> 100	> 100 µM	> 100 µM	> 100	> 100	> 100	> 100	> 100										
COc1cc2c[n+](C)c3c4cc(OC)c(OC(C)C)cc4ccc3c2cc1OC	> 100	> 100 µM	> 100		> 100 µM	69.3	> 100	> 100	> 100	> 100										
COc1cc(OC)c(C/C=C/c2ccccc2)cc1O	38	69.9 µM		28.8 µM	51.6 µM	27.2	40.5	35.2	30.4											
CC1=NN(C(=O)c2ccccc2O)C(=O)/C1=C/c1ccc(O)cc1	> 100	> 100 µM	> 100		> 100 µM	17.4	> 100	19.9	> 100	> 100										
CC[C@@]1(O)C(=O)OCc2c1cc1n(c2=O)Cc2cc3cc4c(cc3nc2-1)OCO4		0.122 µM and 0.0372 µM	0.025	0.0685 µM and 0.114 µM	0.0152 µM and < 0.0414 µM	0.113	0.00137			> 100					0.00137				0.0971	
Cc1nc(Nc2ccccc2)sc1C(=O)CC(=O)C(=O)Nc1c(C(C)C)cccc1C(C)C		> 100 µM	> 100		> 100 µM	> 100	> 100	> 100	> 100	> 100										
